Measured values: US12617837B2, “Composition for use in treatment of allergic diseases” (UNIVERSITY OF TSUKUBA, priority 2019, dated 2026)
Values belong to the compound of their own block, whether it stands above or below them.

Assays:
Clec10a-Fc [1] = molecular target: T1, Clec10a-Fc (Mus musculus, UniProt P49300); assay: ELISA of Clec10a-Fc binding to glycan-coated plates; settings: plates coated with Lewis X or Lewis Y
T1 construct: cloning the extracellular region of mouse Clec10a into a pME18S expression vector; made in house; host or cells: HEK293T cells
T1 sequence (P49300 57-304 limits assumed): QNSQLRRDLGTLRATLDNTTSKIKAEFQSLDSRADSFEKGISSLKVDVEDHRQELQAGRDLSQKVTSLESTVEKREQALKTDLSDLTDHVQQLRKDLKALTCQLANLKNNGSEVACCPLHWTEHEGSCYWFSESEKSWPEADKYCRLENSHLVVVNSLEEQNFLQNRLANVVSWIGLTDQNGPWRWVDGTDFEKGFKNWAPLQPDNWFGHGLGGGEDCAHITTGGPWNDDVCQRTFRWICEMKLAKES
Excerpt: A mouse Clec10a chimeric construct (Clec10a-Fc) was made by cloning the extracellular region of mouse Clec10a into a pME18S expression vector containing the Fc region of human IgG1. Clec10a-Fc was transfected into HEK293T cells using Lipofectamine 2000 (Thermo Fisher Scientific) and the medium was then replaced with GIT medium (KOHJIN BIO). Clec10a-Fc was purified from the culture supernatants using protein a agarose (Bio-Rad Laboratories).
An ELISA system with Clec10a applied to glycan-coated plates was constructed by a routine method to study the binding of each glycan with Clec10a. In the ELISA system, with the expectation that a multivalent effect is achieved by binding a plurality of glycans to the polymeric scaffold, the glycans were bound to the polymeric scaffold and presented to Clec10a. […]
A PBS solution containing 1 μg/well, 0.1 μg/well, or 0.01 μg/well of the polymeric scaffold presenting the glycans at the location “Sugar” of the above formula as described above (the modification rate was 20% as per the above formula) was introduced into a 96 well plate, and incubation was performed overnight at room temperature so that the wells were coated with the glycans. […] After 1-hour incubation at room temperature, the unbound Clec10a-Fc was washed, and Clec10a-Fc bound to the plate surface was quantified with peroxidase-labeled anti-Fc antibodies. […]

human IgG1 = assay: Glycan microarray probed with human IgG1 (control of Table 7); type: binding
Clec10a-Fc [2] = molecular target: T1, Clec10a-Fc; assay: Sugar conjugate (glycan) microarray analysis of Clec10a-Fc (Table 7); type: binding
Description: A sugar conjugate microarray containing 98 sugar conjugates (Table 3) was prepared according to a known method using a non-contact microarray printing robot (MicroSys 4000; Genomic Solutions).

mouse Clec10a = molecular target: T2, mouse Clec10a (Mus musculus, UniProt P49300); assay: Mouse Clec10a-CD3ζ NFAT-GFP reporter cell assay; type: cell-based; settings: for GFP expression in mouse Clec10a reporter cells: stimulation with coated plates, 18 hours, flow cytometry
T2 construct: an extracellular and transmembrane portions of Clec10a fused to a cytoplasmic portion of CD3; expressed in transfected cells; host or cells: 2B4-NFAT-GFP reporter cells, pMXs-puro retroviral vector
T2 sequence (P49300 57-304 limits assumed): T1 sequence (P49300 57-304 limits assumed)
Description: (§1) The intracellular region of human CD3ζ was obtained from a vector provided by LL Lanier (University of California, San Francisco). The extracellular region of mouse or human Clec10a or the extracellular region of human Asgr1 was subcloned into a pMXs-puro retroviral vector. 2B4-NFAT-GFP reporter cells were provided from H. Arase (University of Osaka). 2B4-NFAT-GFP reporter cells stably expressing mouse or human Clec10a were made as described previously. The reporter cells were incubated for 18 hours in the presence or absence of anti-Clec10a mAb, Lewis X (GlycoTech), Lewes Y (GlycoTech), galactose (Sigma-Aldrich), glucose (Sigma-Aldrich) or mannose (Sigma-Aldrich). The reporter cells were also cultured on a galactosidase (R & D Systems, 5704 GH or 5549 GH) or glucosidase (R & D Systems, 8329-GH), or Clec10 ligand-coated plate, or an HDM extract-coated plate treated with size-fractionated Clec10a ligand or untreated. Activation of NFAT-GFP was monitored by flow cytometry.
To test whether Clec10a recognized glycosylated proteins contained in HDM, NFAT-GFP reporter cells (Clec10a reporter cells) were made which expressed chimeric fusion proteins inch ling an extracellular and transmembrane portions of Clec10a fused to a cytoplasmic portion of CD3.

BMMP = assay: Immunoprecipitation/immunoblot of SHP-1 recruitment to Clec10a in HDM-stimulated BMMP; type: cell-based, mouse; settings: BMMP pretreated with Syk inhibitor, HDM extract 100 μg/mL
Description: To analyze association of Clec10a with Syk or SHP-1, BMMP was pretreated in the presence or absence of […] Syk inhibitor IV (Merck, 574714) at 37° C. for 30 minutes and stimulated with an HDM extract (100 μg/mL) at 37° C. for 0 min, 10 min, or 30 min. BMMP was lysed with a 0.2% digitonin buffer and immunoprecipitated with anti-Clec10a mAb. An immune precipitate was transferred onto a PVDF membrane as described above and immunoblotted using anti-Syk antibodies, anti-SHP-1 antibodies, or anti-Clec10a antibodies, and then detected with HRP-labeled anti-rabbit IgG antibodies or goat IgG antibodies. All proteins were detected using enhanced chemiluminescence (Thermo Fisher Scientific).

[3] = test system: skin inflammation against lipopolysaccharides (LPS); assay: LPS-induced skin inflammation, intradermal LPS with polymeric scaffold presenting T antigen; type: in vivo, mouse; settings: 50 μg LPS and 20 μg T antigen scaffold intradermal daily, Day 5
Description: It was examined whether one of them, T antigen, could suppress skin inflammation against lipopolysaccharides (LPS). The polymeric scaffolds presenting 50 μg LPS and 20 μg T antigen were intradermally injected in the mouse back daily and the epidermal thickness was observed on Day 5. […] In the Clec10a-knockout mice, the epidermal thickness was equal to or greater than that in the WT.

human Asgr1 = molecular target: T3, human Asgr1 (Homo sapiens, UniProt P07306); assay: Human Asgr1-CD3ζ NFAT-GFP reporter cell assay; type: cell-based
T3 construct: the extracellular region of human Asgr1 was subcloned into a pMXs-puro retroviral vector; expressed in transfected cells
T3 sequence (P07306 62-291 limits assumed): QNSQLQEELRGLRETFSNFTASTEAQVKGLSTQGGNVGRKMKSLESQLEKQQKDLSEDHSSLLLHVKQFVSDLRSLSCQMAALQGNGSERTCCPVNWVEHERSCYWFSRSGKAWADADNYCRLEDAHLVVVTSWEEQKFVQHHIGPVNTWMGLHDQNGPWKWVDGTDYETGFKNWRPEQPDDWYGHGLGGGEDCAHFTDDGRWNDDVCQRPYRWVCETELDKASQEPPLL
Description: as §1
(§2) The hemITAM sequence (YxxL) was not found in human Clec10a and could only be found in human Asgr1 (see panel c in FIG. 4). […] Upon confirmation of protein expression, human Asgr1 expressed in MP in the human skin, similarly to Clec10a expression in the mouse skin (see panel e in FIG. 4). […]

human Clec10a = molecular target: T4, human Clec10a (Homo sapiens, UniProt Q8IUN9); assay: Human Clec10a-CD3ζ NFAT-GFP reporter cell assay; type: cell-based; settings: addition of sugar, HDM-coated plates
T4 construct: The extracellular region of mouse or human Clec10a or the extracellular region of human Asgr1 was subcloned; expressed in transfected cells; host or cells: 2B4-NFAT-GFP reporter cells, pMXs-puro retroviral vector
T4 sequence (Q8IUN9 61-316 limits assumed): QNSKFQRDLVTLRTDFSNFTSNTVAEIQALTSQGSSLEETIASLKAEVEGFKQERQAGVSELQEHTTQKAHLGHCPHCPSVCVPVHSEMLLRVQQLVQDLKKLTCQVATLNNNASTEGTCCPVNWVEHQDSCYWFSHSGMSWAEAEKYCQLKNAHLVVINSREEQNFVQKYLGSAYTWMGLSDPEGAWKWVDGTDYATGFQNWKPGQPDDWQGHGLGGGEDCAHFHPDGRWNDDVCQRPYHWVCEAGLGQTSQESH
Description: as §1, §2

Binding of Clec10a-Fc to coated plates (ELISA) (Clec10a-Fc [1]): not bound | Signal value, Clec10a-Fc (Clec10a-Fc [2]; glycan microarray probed with Clec10a-Fc): 0 | Signal value, Clec10a-Fc with EDTA (Clec10a-Fc [2]; glycan microarray probed with Clec10a-Fc with EDTA): 0 | GFP expression in mouse Clec10a reporter cells (mouse Clec10a): did not respond
SMILES: CC(=O)N[C@@H]1[C@@H](O[C@@H]2O[C@@H](C)[C@@H](O)[C@@H](O)[C@@H]2O)[C@H](O[C@@H]2O[C@H](CO)[C@H](O)[C@H](O)[C@H]2O[C@@H]2O[C@@H](C)[C@@H](O)[C@@H](O)[C@@H]2O)[C@@H](CO)O[C@H]1O [Lewis Y, reference compound]
Signal value, human IgG1 (human IgG1): 0

SMILES: COc1ccc(-c2cc3nccn3c(Nc3ncccc3C(N)=O)n2)cc1OC [Syk inhibitor IV]
Recruitment of HDM-induced SHP-1 to Clec10a (BMMP): suppressed the recruitment of HDM-induced SHP-1 to Clec10a

Binding of Clec10a-Fc in glycan microarray (Clec10a-Fc [2]; Clec10a-Fc 10 μg/mL): binds
SMILES: CC(=O)N[C@H]1C(O)O[C@H](CO)[C@H](O)[C@@H]1O[C@@H]1O[C@H](CO)[C@H](O)[C@H](O)[C@H]1O (some centres unmarked) [T antigen, Galβ(1-3)GalNAc]
Epidermal thickness ([3]; Clec10a knockout mice): epidermal thickness suppressive effect of the T antigen was not observed | Epidermal thickness ([3]; WT mice): increase in thickness of the skin by LPS was suppressed | GFP expression in mouse Clec10a reporter cells (mouse Clec10a): activated Clec10a in a dose-dependent manner

Inhibition of HDM-induced GFP expression in human Clec10a reporter cells (human Clec10a): only in the Asgr1 reporter cells | Inhibition of HDM-induced GFP expression in mouse Clec10a reporter cells (mouse Clec10a; pretreatment of the reporter cells, HDM-coated plates): inhibited GFP expression
SMILES: O=C[C@H](O)[C@@H](O)[C@@H](O)[C@H](O)CO [galactose]
Offset of Clec10a ligand-induced activation of human Asgr1 reporter cells (human Asgr1; addition of galactose to the system): offset, in a concentration dependent manner | Inhibition of HDM-induced GFP expression in human Asgr1 reporter cells (human Asgr1; addition of sugar, HDM-coated plates): inhibited the expression of GFP induced by HDM
